Assay: Safe solvent solubility test of compound
Type: physicochemical
Conditions: for Solubility in CHN (amount of dissolution) / Solubility in PGME (amount of dissolution) / Solubility in PGME A (amount of dissolution): 23° C., ultrasonic waves 30 minutes, visual observation; for Solubility in PGME A (amount of dissolution) / Solubility in safe solvents (in words): PGMEA; for Solubility in safe solvents (in words): safe solvents PGME; for Solubility in CHN (amount of dissolution) / Solubility in safe solvents (in words): CHN
Experimental: The solubilities of the compound in PGME, PGMEA, and CHN were evaluated according to the following criteria utilizing the amount of dissolution in each solvent. The amount of dissolution was measured at 23° C. by precisely weighing the compound into a test tube, adding a subject solvent so as to attain a predetermined concentration, applying ultrasonic waves for 30 minutes in an ultrasonic cleaner, and visually observing the subsequent state of the fluid.
A: 5.0% by mass≤Amount of dissolution
B: 2.0% by mass≤Amount of dissolution<5.0% by mass
C: Amount of dissolution<2.0% by mass • (2) Storage Stability and Thin Film Formability of Resist Composition

Oc1ccc2ccc3c(c2c1)C(c1cccc(I)c1)c1c(ccc2ccc(O)cc12)O3 [Synthesis Example 4]
Solubility in CHN (amount of dissolution): B (2.0% by mass ≤ Amount of dissolution <5.0% by mass) | Solubility in PGME (amount of dissolution): A (5.0% by mass ≤ Amount of dissolution) | Solubility in PGME A (amount of dissolution): A (5.0% by mass ≤ Amount of dissolution) | Solubility in safe solvents (in words): high solubility

COc1cc(C2c3c(ccc4ccc(O)cc34)Oc3ccc4ccc(O)cc4c32)cc(I)c1O [Synthesis Example 6]
Solubility in CHN (amount of dissolution): A (5.0% by mass ≤ Amount of dissolution) | Solubility in PGME (amount of dissolution): A (5.0% by mass ≤ Amount of dissolution) | Solubility in PGME A (amount of dissolution): A (5.0% by mass ≤ Amount of dissolution) | Solubility in safe solvents (in words): high solubility

Oc1ccc2c3c(ccc2c1)Oc1ccc2cc(O)ccc2c1C3c1ccc(-c2ccccc2)cc1 [Production Example 1, reference compound]
Solubility in CHN (amount of dissolution): A (5.0% by mass ≤ Amount of dissolution) | Solubility in PGME (amount of dissolution): A (5.0% by mass ≤ Amount of dissolution) | Solubility in PGME A (amount of dissolution): A (5.0% by mass ≤ Amount of dissolution)

Oc1ccc2c3c(ccc2c1)Oc1ccc2cc(O)ccc2c1C3c1cccc(I)c1 [Synthesis Example 1]
Solubility in CHN (amount of dissolution): A (5.0% by mass ≤ Amount of dissolution) | Solubility in PGME (amount of dissolution): A (5.0% by mass ≤ Amount of dissolution) | Solubility in PGME A (amount of dissolution): A (5.0% by mass ≤ Amount of dissolution) | Solubility in safe solvents (in words): high solubility

Oc1ccc2c3c(ccc2c1)Oc1ccc2cc(O)ccc2c1C3c1ccc(I)cc1 [Synthesis Example 2]
Solubility in CHN (amount of dissolution): A (5.0% by mass ≤ Amount of dissolution) | Solubility in PGME (amount of dissolution): A (5.0% by mass ≤ Amount of dissolution) | Solubility in PGME A (amount of dissolution): A (5.0% by mass ≤ Amount of dissolution) | Solubility in safe solvents (in words): high solubility

COc1cc(C2c3c(ccc4cc(O)ccc34)Oc3ccc4cc(O)ccc4c32)cc(I)c1O [Synthesis Example 3]
Solubility in CHN (amount of dissolution): A (5.0% by mass ≤ Amount of dissolution) | Solubility in PGME (amount of dissolution): A (5.0% by mass ≤ Amount of dissolution) | Solubility in PGME A (amount of dissolution): A (5.0% by mass ≤ Amount of dissolution) | Solubility in safe solvents (in words): high solubility

Oc1ccc2ccc3c(c2c1)C(c1ccc(I)cc1)c1c(ccc2ccc(O)cc12)O3 [Synthesis Example 5]
Solubility in CHN (amount of dissolution): A (5.0% by mass ≤ Amount of dissolution) | Solubility in PGME (amount of dissolution): A (5.0% by mass ≤ Amount of dissolution) | Solubility in PGME A (amount of dissolution): C (Amount of dissolution <2.0% by mass) | Solubility in safe solvents (in words): high solubility
